Square brackets hold non-standard residues; d marks the D form. Peptide text beside a SMILES is read from it. * marks the point of attachment. 3Pal = N[C@@H](Cc1cccnc1)C(=O)O; β3hF = N[C@H](CC(=O)O)Cc1ccccc1; PhAc = O=C(Cc1ccccc1)*; azaGly = NNC(=O)O
Tests used:
[1] = test system: PGF2α-induced myometrial contractions; assay: Ex vivo myometrial contraction assay; parameters: species or system mice; settings: mouse myometrial strips; compound given 15 min before PGF2α
Description: FIGS. 7A and 7B show the effects of PDC113.824 and azapeptides 5-9 on mean tension in myometrial preparations induced by PGF2α. At the beginning of each experiment, mean tension of spontaneous myometrial contraction was considered as the basal response. […] Values as mean±SEM of 3-5 experiments for each compound; p<0.05 compared to all values without asterisks.
Ex vivo myometrial contraction assays were performed as previously described^24. Briefly, uteri from mice were obtained from animals immediately after delivery.

SW480 cells = assay: Migration/invasion of SW480 cells in collagen-coated Boyden chambers; assay type: cell-based, human; settings: 1 μM, 30 min pre-treatment, 16 h; for PGF2α-induced migration of SW480 cells: then 1 μM PGF2α
Description: SW480 cells were re-seeded into collagen-coated Boyden chambers, pretreated with PDC (1 μM, 30 min.), and stimulated or not with 1 μM PGF2α and PGE2 (use to show specificity of analogs for FP). Migration/invasion was assessed after 16 h.
Migration/invasion was assessed after 16 h.

PGF2α receptor (FP) [2] = target: T1, PGF2α receptor (FP) (Homo sapiens, UniProt P43088); assay: Cell ruffling in FP expressing HEK293 cells; settings: 30 min; for inhibition of FP-induced (PGF2α-mediated) cell ruffling: pretreated 1 μM, then PGF2α 1 μM
Description: Nine fields (50-75 cells/field) per cover slip were quantified to assess circular cellular ruffling.

PGF2α receptor (FP) [3] = target: T1, PGF2α receptor (FP); assay: ERK1/2 MAP kinase activation in HEK293 cells stably transfected with HA-FP (western blot); assay type: cell-based; parameters: expressed in transfected cells; host or cells: HEK293; settings: 1 μM azapeptide 30 min pre-treatment, then PGF2α 0.1 μM or 1 μM for 5 min
Description: PGF2αreceptor (FP) expressing cells were serum-starved and pre-treated with 1 μM azapeptides (6-9) for 30 min and then stimulated with 0.1 μM (A) or 1 μM (B) PGF2α for 5 min as described.^24 Blots were quantified by densitometry and plotted compared to the non-stimulated (NS) condition. Results are representative of five independent experiments;
PGF2α was obtained from Cayman. Mouse monoclonal anti-p-ERK and rabbit polyclonal anti-total ERK antibodies were from Cell Signaling. HEK293 cells stably transfected with HA-FP (HA-FP cells)^24 were employed to measure activation of MAP kinase by PGF2α using conventional western blot methods. Briefly, HA-FP cells in 6-well plates were starved for 30 min and pre-treated with 1 μM of an azapeptide (6-9) for 30 min, and then challenged with PGF2α (0.1 μM or 1 μM) for 5 min. Cells were lysed in Laemmli buffer 2× (250 mM Tris-HCl pH 6.8, 2% SDS, 10% Glycerol, 0.01% Bromophenol blue). Lysates were electrophoresed on a 10% SDS-PAGE gels, transferred to nitrocellulose membranes, and probed using mouse anti-p-ERK1/2 and rabbit anti-total-ERK1/2 antibodies. Blots were quantified by densitometry and statistical tests were performed as described.^24

[4] = test system: SW480, HT29, Caco-2 and HTC116 cells; assay: Effect of PGF2α and PGE2 on colorectal cancer cell migration (collagen-coated Boyden chamber); assay type: cell-based, human; settings: for migration of colorectal adenocarcinoma cell lines on stimulation: mediator 1 μM, 16 h, SW480, HT29, Caco-2, HTC116
Description: SW480 (p53 mut, K-Ras mut, APC mut), HT29 (p53 mut, K-Ras WT, APC mut), Caco-2 (p53 mut, K-Ras WT, APC mut), and HTC116 ([…], K-Ras mut, APC mut) cells were re-seeded into Boyden chambers coated with collagen, stimulated or not with FBS (10%), PGF2α (1 μM) or PGE2 (1 μM). Migration/invation was assessed after 16 h. Results are presented as mean±SEM of 3 independent experiments. *p<0.05, **p<0.01, ***p<0.001 compared to non-stimulated (ns) conditions;

T1 sequence (P43088 whole entry, species assumed): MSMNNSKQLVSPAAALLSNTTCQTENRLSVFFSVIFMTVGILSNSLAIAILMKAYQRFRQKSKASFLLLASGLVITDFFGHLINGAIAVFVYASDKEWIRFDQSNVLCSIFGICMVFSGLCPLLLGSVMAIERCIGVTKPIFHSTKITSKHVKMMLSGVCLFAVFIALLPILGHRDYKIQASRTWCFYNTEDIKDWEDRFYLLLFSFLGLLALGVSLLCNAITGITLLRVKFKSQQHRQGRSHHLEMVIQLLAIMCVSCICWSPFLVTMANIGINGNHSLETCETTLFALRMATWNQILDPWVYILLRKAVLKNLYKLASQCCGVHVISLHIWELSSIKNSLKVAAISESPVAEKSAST

| SMILES | PGF2α-induced migration of SW480 cells (SW480 cells) | inhibition of FP-induced (PGF2α-mediated) cell ruffling (PGF2α receptor (FP) [2]) | PGF2α-mediated ERK1/2 signaling relative to cells stimulated with PGF2α alone (PGF2α receptor (FP) [3]) | also measured |
| --- | --- | --- | --- | --- |
| O=C(O)C[C@H](Cc1ccccc1)NC(=O)[C@H](Cc1cccnc1)NC(=O)[C@@H]1CC[C@@H]2CC[C@H](NC(=O)Cc3ccccc3)C(=O)N21 [PDC113.824, Phenylacetyl-(3S,6S,9S)-I^2aa-(2S)-(3-pyridyl)alaninyl-(3S)-β-homophenylalanine, reference compound] | significantly blocked PGF2α-induced migration | inhibiting FP-induced cell ruffling | – | reduction of PGF2α-induced myometrial contractions (mean tension) [1]: active; PGE2-induced migration of SW480 cells (SW480 cells; then 1 μM PGE2): without affecting migration induced by PGE2; migration of SW480 cells in the absence of PGF2α and PGE2 (SW480 cells): did not affect the migration of SW480 cells |
| C#CCN(NC(=O)Cc1ccccc1)C(=O)N1CCC[C@H]1C(=O)N[C@@H](Cc1cccnc1)C(=O)N[C@H](CC(=O)O)Cc1ccccc1 [Compound 6, Phenylacetyl-aza-propargylglycinyl-(2S)-prolyl-(2S)-3-(pyridyl)-alaninyl-(3S)-β-homophenylalanine] | had an effect on cell migration but was not as effective as the others | slightly reduced PGF2α-mediated cell ruffling | significantly potentiated | – |
| O=C(O)C[C@H](Cc1ccccc1)NC(=O)[C@H](Cc1cccnc1)NC(=O)[C@@H]1CCCN1C(=O)NNC(=O)Cc1ccccc1 [Compound 5] (PhAc-[azaGly]P[3Pal][β3hF]-OH) | significantly impaired the ability of SW480 cells to migrate | as effective as PDC113.824 in inhibiting FP-induced cell ruffling | – | – |
| CN(NC(=O)Cc1ccccc1)C(=O)N1CCC[C@H]1C(=O)N[C@@H](Cc1cccnc1)C(=O)N[C@H](CC(=O)O)Cc1ccccc1 [Compound 9] | relatively lower effect | slightly reduced PGF2α-mediated cell ruffling | hindered | – |
| O=C(O)C[C@H](Cc1ccccc1)NC(=O)[C@H](Cc1cccnc1)NC(=O)[C@@H]1CCCN1C(=O)N(Cc1ccccc1)NC(=O)Cc1ccccc1 [Compound 7] | significantly impaired the ability of SW480 cells to migrate | as effective as PDC113.824 in inhibiting FP-induced cell ruffling | significantly potentiated | reduction of PGF2α-induced myometrial contractions (mean tension) [1]: active |
| CCCCC[C@H](O)/C=C/[C@H]1[C@H](O)CC(=O)[C@@H]1C/C=C\CCCC(=O)O [PGE2] | – | – | – | migration of colorectal adenocarcinoma cell lines on stimulation [4]: enhanced migration of the four (4) cell lines examined |
| C=CCN(NC(=O)Cc1ccccc1)C(=O)N1CCC[C@H]1C(=O)N[C@@H](Cc1cccnc1)C(=O)N[C@H](CC(=O)O)Cc1ccccc1 [Compound 8] | significantly impaired the ability of SW480 cells to migrate | as effective as PDC113.824 in inhibiting FP-induced cell ruffling | hindered | – |
| CCCCC[C@H](O)/C=C/[C@@H]1[C@@H](C/C=C\CCCC(=O)O)[C@@H](O)C[C@H]1O [PGF2α] | – | – | – | potency of PGF2α on migration compared with PGE2 ([4]; SW480 and HT29 cells): as potent as PGE2; migration of colorectal adenocarcinoma cell lines on stimulation [4]: enhanced migration of the four (4) cell lines examined; membrane ruffle formation, share of FP cells (PGF2α receptor (FP) [2]; PGF2α 1 μM): 65.7 ± 1.6% |
